Data on 1 molecule can be found in publication PMC10004195, “Novel Dual-Target Kinase Inhibitors of EGFR and ALK Were Designed, Synthesized, and Induced Cell Apoptosis in Non-Small Cell Lung Cancer” (Molecules, 2023).

Like-named read-outs stand apart in the source and are kept apart here.

What is called IC50 is the concentration that gives 50% inhibition.

One experiment concerns the target EML4-ALK (Homo sapiens, UniProt Q9UM73). The experiment is described as follows: Kinase ELISA assay, EML4-ALK. The conditions noted are these: read-out: IC50 against EML4-ALK. The experiment is classed as biochemical. The protocol: (§1) Four kinases (EGFR, EGFR^L858R/T790M, ALK, and EML4-ALK) were tested using an ELISA assay. […] There was no effect on the wild-type EGFR or ALK kinases triggered by the compound. Consequently, the selection of the compound was good as both compounds balanced IC50 against EGFR and ALK, respectively. […] Following that, fluorescence assays were used to measure the phosphorylation of the EGFR and ALK protein affect with compound 9j at the cellular level. […] Next, WB assay was used to test the protein expression of H1975 and H2228 cells at the concentration of 5, 10, and 100 nM.
(In general: An ELISA detects its analyte on a solid surface through an enzyme-linked reagent.)

The test system of experiment [1] is HK2 (human kidney proximal convoluted tubule epithelial cells). Briefly: Cytotoxicity test on nontumorigenic cells, HK2. Format: cell-based. From the text: (§2) It is critical to evaluate the balance between the safety and efficacy of drugs for the development of new drugs; thus, we then conducted a cytotoxicity test on […] types of nontumorigenic cell lines from different origins, including LO2 (human normal liver cells), HK2 (human kidney proximal convoluted tubule epithelial cells), HLF (human embryonic lung fibroblast), 293A (human embryonic kidney cells), and HUVEC (human umbilical vein endothelial cells). […] In addition, we evaluated the compound’s safety in vivo by performing acute toxicity tests in mice, and 9j was injected intravenously at concentrations of 100 mg/kg, 150 mg/kg, and 300 mg/kg.
(§3) A total of 7000 cells per well were seeded in a 96-well plate with at least three technical replicates; then, exposed to different concentrations (10, 5, 1, 0.1, 0.05, 0.01 uM) of the test compounds for 72 h. After the treatment, CCK8 (Sigma, St. Louis, MO, USA) was added to each well under sterile conditions (to a final concentration of 10% of the total volume) and the plates were incubated for 2–4 h at 37 °C. Absorbance was measured at 450 nm in a microplate reader.

Experiment [2] concerns HUVEC (human umbilical vein endothelial cells). The experiment is described as follows: Cytotoxicity test on nontumorigenic cells, HUVEC. Format: cell-based.
Excerpt: as §2, §3

The test system of experiment [3] is H1975 cells. The experiment is described as follows: Wound-healing (cell scratching) assay. The conditions noted are these: H1975, 48 h; PBS group about 70%. The experiment is classed as cell-based, human. The protocol: (§4) The migration and invasion of tumor cells directly contribute to metastasis. Metastasis is the leading cause of death in cancer patients. To determine the ability of 9j to inhibit tumor cell migration, the cell scratching assay was performed. Following scratching, phase contrast pictures were taken of the scratched and healing cell monolayers.
H1975 cells were plated in a six-well culture dish at 5 × 10^4 cells/dish and grown for 24 h, and […]. The medium was then replaced with a serum-free 1640 medium and treated with compound 9j at the indicated concentrations for another 24 h or 48 h. After the samples were washed with phosphate buffer solution (PBS), the cell images were immediately detected by a Zeiss LSM 570 laser scanning confocal microscope (Carl Zeiss, Jena, Germany).

The test system of experiment [4] is H1975 (EGFR T790M/L858R) cells. Briefly: CCK8 antiproliferative assay, H1975 cells. The experiment is classed as cell-based, human. The conditions noted are these: Homo sapiens. From the text:
The human cancer cell lines (H1975, H2228) used in this study were purchased from the Guangzhou ginny ou biotechnology Co., Ltd. (Guangzhou, China). The human cancer cell lines (NCI-H522) used in this study were purchased from the Shenzhen Haodi Huatuo Biotechnology Co., LTD (Shenzhen, China). The human cancer cell lines (LOVO, HLF, BJ, LO2) used in this study were purchased from the Laboratory Animal Service Center at Sun Yat-sen University (Guangzhou, China). […] Cell lines LOVO, HLF, BJ, and LO2 were cultivated in DMEM containing 10% (v/v) heat-inactivated fetal bovine serum (FBS), 100 units/mL penicillin, and 100 μg/mL streptomycin.

In the next experiment the test system is H522 cells. Briefly: CCK8 antiproliferative assay, H522 cells. The experiment is classed as cell-based. The note with it: Homo sapiens, NCI-H522, 72 h. The text has this: The human cancer cell lines (H1975, H2228) used in this study were purchased from the Guangzhou ginny ou biotechnology Co., Ltd. (Guangzhou, China). The human cancer cell lines (NCI-H522) used in this study were purchased from the Shenzhen Haodi Huatuo Biotechnology Co., LTD (Shenzhen, China). The human cancer cell lines (LOVO, HLF, BJ, LO2) used in this study were purchased from the Laboratory Animal Service Center at Sun Yat-sen University (Guangzhou, China). Cell lines were cultivated in 1640 containing 10% (v/v) heat-inactivated fetal bovine serum (FBS), 100 units/mL penicillin, and 100 μg/mL streptomycin. Cell lines LOVO, HLF, BJ, and LO2 were cultivated in DMEM containing 10% (v/v) heat-inactivated fetal bovine serum (FBS), 100 units/mL penicillin, and 100 μg/mL streptomycin.
(Formazan colour is commonly taken as a measure of viable cells.)

The test system of experiment [5] is H1975 cells. The experiment is described as follows: Transwell migration and invasion assay. The experiment is classed as cell-based, human. The protocol:
as §4
Migration assay was performed using an 8 um pore Boyden chamber (24-well, #353097, Corning, NY, USA), and incubated in the presence or absence of compound 9j. A total of 50,000 cells were seeded in serum-free medium in the top chamber and allowed to migrate for 48 h toward the bottom chamber containing 10% fetal bovine serum medium. Cells were fixed and permeabilized with cold 70% ethanol and methanol, and stained with 0.4% crystal violet. The average number of migrating cells was evaluated from at least four independent microscope fields.

For the next experiment, the system named is p-AKT. The experiment is described as follows: Western blot, p-AKT. The note with it: WB, 5, 10 and 100 nM, 3 h treatment. The experiment is classed as cell-based, human. The protocol:
as §1
H1975 (H2228) cells seeded in 60 mm dishes at a density of 5 × 10^5 cells/well were incubated with or without compound 9j (0, 5, 10, 100 nM) for 2–4 h. After treatment, cells were stained as previously described.

Experiment [6] deals with HLF (human embryonic lung fibroblast). The experiment is described as follows: Cytotoxicity test on nontumorigenic cells, HLF. The experiment is classed as cell-based.
Excerpt: as §2, §3

For experiment [7], the system named is 293A (human embryonic kidney cells). Briefly: Cytotoxicity test on nontumorigenic cells, 293A. The experiment is classed as cell-based.
Excerpt: as §2, §3

The subject of experiment [8] is phosphorylated EGFR (p-EGFR). The experiment is described as follows: Immunofluorescence assay of phosphorylated EGFR. Format: cell-based, human. The note with it: fluorescence assay, treatment for 2 to 4 h. The protocol: as §1
Figure 2 (A) The activity of compound 9j against four kinases (EGFR, ALK, EGFR ^L858R T790M, and EML4-ALK). (B) H1975 and H2228 cells were treated with 9j for 2–4 h; the staining for phosphorylated EGFR (p-EGFR) and phosphorylated ALK (p-ALK) was shown as red fluorescence. (C) WB analysis of phosphorylated proteins in drug-treated H1975 and H2228 cells.

EML4-ALK, sequence (Q9UM73 1058-1620): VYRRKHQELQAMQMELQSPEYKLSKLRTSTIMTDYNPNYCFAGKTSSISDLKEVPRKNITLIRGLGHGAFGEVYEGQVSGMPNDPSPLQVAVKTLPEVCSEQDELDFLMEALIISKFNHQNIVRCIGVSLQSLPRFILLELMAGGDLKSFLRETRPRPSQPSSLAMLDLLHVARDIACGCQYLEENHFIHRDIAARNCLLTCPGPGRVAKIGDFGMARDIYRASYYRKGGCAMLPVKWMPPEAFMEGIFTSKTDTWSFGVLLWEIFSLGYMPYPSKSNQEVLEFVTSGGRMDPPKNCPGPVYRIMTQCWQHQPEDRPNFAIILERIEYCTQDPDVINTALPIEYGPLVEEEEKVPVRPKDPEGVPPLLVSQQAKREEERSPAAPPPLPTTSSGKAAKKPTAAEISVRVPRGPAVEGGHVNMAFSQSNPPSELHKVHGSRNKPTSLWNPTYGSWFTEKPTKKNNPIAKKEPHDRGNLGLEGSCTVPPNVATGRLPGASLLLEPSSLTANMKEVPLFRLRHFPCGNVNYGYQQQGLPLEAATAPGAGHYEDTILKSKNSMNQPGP
EML4-ALK, sequence (Q9HC35 1-496, further chain): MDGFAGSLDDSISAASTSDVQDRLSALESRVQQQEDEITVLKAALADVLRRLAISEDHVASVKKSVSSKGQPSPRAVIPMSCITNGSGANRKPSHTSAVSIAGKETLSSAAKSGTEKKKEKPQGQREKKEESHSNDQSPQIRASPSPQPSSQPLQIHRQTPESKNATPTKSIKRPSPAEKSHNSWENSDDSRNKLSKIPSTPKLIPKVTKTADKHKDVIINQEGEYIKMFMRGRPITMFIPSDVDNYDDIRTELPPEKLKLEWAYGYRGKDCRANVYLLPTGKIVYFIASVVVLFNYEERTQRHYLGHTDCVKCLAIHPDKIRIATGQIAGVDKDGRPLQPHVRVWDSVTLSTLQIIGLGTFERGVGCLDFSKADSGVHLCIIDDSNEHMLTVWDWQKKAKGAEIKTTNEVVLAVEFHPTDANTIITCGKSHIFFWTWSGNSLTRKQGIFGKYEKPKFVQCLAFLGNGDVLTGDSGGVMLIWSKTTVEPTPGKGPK

Turning to `C=CC(=O)Nc1cc(Nc2ncc(Cl)c(Nc3ccc(Cl)cc3[S+]([O-])C(C)C)n2)c(OC)cc1C1CCN(C)CC1` (stereo not shown) [9j, N-(5-((5-Chloro-4-((4-chloro-2-(isopropylsulfinyl)phenyl)amino)pyrimidin-2-yl)amino)-4-methoxy-2-(1-methylpiperidin-4-yl)phenyl)acrylamide], the IC50 on EML4-ALK was 0.0563 ± 0.0003 µM; in experiment [1] (Homo sapiens, Epithelial cell, HK2, mean ± SE, read-out: Toxicity to normal cells, IC50 HK2), 25.71 ± 0.08 µM; in experiment [2] (Homo sapiens, HUVEC, mean ± SE, read-out: Toxicity to normal cells, IC50 HUVEC), 21.36 ± 0.06 µM; in experiment [4] (NCI-H1975, 72 h, CCK8 assay, 72 h, H1975 (EGFR T790M/L858R), read-out: IC50 H1975), 0.0783 ± 0.03 µM; in experiment [4] (NCI-H1975, H1975, mean ± SE, unit inferred, read-out: IC50 H1975 (Table 2)) it was 0.0783 ± 0.03 µM; in the experiment on H522 cells, greater than 10 µM. Also, the IC50 came to 27.87 ± 0.01 µM in experiment [6] (Homo sapiens, Fibroblast, HLF, mean ± SE, read-out: Toxicity to normal cells, IC50 HLF) and 20 ± 0.05 µM in experiment [7] (Homo sapiens, 293A, mean ± SE, read-out: Toxicity to normal cells, IC50 293A). The “Selectivity Ratio (IC50 human normal cells)/(IC50 H1975), HK2” value in experiment [1] (HK2 vs H1975) worked out at 329.6. Moreover, the “Selectivity Ratio (IC50 human normal cells)/(IC50 H1975), HUVEC” value in experiment [2] (HUVEC vs H1975) was found to be 273.8. Also, the scratch healing rate entry with H1975 cells [3] is recorded as “clearly decreased”. Further, the invasion ability result with H1975 cells [5] is recorded as “reduced its invasion ability in a concentration-dependent manner”. Further, the “expression of p-AKT” value in the experiment with p-AKT is listed as “inhibited”. The “Selectivity Ratio (IC50 human normal cells)/(IC50 H1975), HLF” value in experiment [6] (HLF vs H1975) is 357.3. In addition, in [7] (293A vs H1975), the “Selectivity Ratio (IC50 human normal cells)/(IC50 H1975), 293A” value came to 255.5. Besides, the “expression level of phosphorylated EGFR protein” value in experiment [8] is “decreased significantly”.
